Results as given in ChEMBL document CHEMBL4392822, “HSP60/10 chaperonin systems are inhibited by a variety of approved drugs, natural products, and known bioactive molecules” (Bioorg Med Chem Lett, 2019).
Structures can show the parent of a compound that is named as a salt.

Tests used:
GroEL/GroES [1] = biological target: GroEL/GroES; parameters: species or system Escherichia coli
Description: (§1) Inhibition of Escherichia coli GroEL expressed in Escherichia coli DH5alpha/Escherichia coli GroES expressed in Escherichia coli BL21 (DE3) assessed as reduction in GroEL/GroES-mediated denatured rhodanese refolding by measuring rhodanese enzyme activity after 45 mins by Fe(SCN)3 dye based spectrometric analysis

Chaperonin GroEL = Chaperonin GroEL (Escherichia coli (strain K12), UniProt P0A6F5);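 note: inhibition of GroEL ATPase activity with ATP as substrate, 60 min incubation, spectrometric read-out, recombinant enzyme produced in Escherichia coli DH5alpha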
Chain of Chaperonin GroEL (P0A6F5 whole entry): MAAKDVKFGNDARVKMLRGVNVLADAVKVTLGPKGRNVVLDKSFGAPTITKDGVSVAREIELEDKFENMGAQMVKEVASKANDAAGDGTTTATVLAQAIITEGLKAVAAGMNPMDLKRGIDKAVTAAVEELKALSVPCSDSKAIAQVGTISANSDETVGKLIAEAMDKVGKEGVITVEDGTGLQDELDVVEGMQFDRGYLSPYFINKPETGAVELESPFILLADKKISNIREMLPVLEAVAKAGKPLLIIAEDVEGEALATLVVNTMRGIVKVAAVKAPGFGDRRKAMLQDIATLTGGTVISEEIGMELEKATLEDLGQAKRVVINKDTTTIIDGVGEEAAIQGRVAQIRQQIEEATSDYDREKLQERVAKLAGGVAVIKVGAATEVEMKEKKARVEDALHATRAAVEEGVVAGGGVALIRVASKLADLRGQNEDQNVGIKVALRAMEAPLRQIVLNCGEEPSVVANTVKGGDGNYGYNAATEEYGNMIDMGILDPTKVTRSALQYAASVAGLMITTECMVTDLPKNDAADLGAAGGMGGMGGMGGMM
Description: Inhibition of ATPase activity of Escherichia coli GroEL expressed in Escherichia coliDH5alpha incubated for 60 mins using ATP by spectrometric analysis

GroEL/GroES [2] = biological target: GroEL/GroES; parameters: species or system Escherichia coli; remark: listed apart in the source
Description: (§2) Inhibition of Escherichia coli GroEL expressed in Escherichia coliDH5alpha/Escherichia coli GroES expressed in Escherichia coli BL21 (DE3) assessed as reduction in GroEL/GroES-mediated denatured soluble pig heart MDH refolding by measuring MDH enzyme activity using sodium mesoxalate as substrate after 20 to 40 mins by malachite green dye based spectrometric analysis

HSP60/HSP10 [3] = biological target: HSP60/HSP10 (Homo sapiens, UniProt P10809+P61604)
Chain of HSP60/HSP10 (Homo sapiens, UniProt P10809+P61604) (P10809 whole entry): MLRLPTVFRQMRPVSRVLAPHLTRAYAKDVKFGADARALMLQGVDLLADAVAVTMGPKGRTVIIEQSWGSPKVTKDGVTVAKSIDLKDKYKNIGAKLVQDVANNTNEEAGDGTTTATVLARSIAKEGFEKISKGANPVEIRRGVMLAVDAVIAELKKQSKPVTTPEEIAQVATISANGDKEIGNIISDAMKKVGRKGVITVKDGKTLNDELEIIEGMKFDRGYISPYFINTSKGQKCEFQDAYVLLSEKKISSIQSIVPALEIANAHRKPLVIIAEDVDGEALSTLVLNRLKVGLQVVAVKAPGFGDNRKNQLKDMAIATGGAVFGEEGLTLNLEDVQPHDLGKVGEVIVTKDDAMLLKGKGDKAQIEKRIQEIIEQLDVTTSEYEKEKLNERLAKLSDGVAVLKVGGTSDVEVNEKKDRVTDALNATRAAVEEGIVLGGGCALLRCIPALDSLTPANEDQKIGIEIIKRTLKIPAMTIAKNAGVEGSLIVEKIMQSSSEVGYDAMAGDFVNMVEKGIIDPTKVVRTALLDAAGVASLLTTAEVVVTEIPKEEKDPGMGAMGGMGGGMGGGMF
Chain of HSP60/HSP10 (Homo sapiens, UniProt P10809+P61604) (P61604 whole entry): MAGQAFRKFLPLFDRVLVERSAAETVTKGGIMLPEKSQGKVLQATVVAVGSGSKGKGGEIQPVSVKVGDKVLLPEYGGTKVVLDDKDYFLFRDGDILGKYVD
Description: (§3) Inhibition of human N-terminal octa-His-tagged HSP60 expressed in Escherichia coli Rosetta(DE3) pLysS/human HSP10 expressed in Escherichia coli Rosetta(DE3) assessed as reduction in HSP60/HSP10-mediated denatured MDH refolding by measuring MDH enzyme activity using sodium mesoxalate as substrate after 40 to 60 mins by malachite green dye based spectrometric analysis

E. coli GroEL/ES [4] = biological target: T1, E. coli GroEL/ES (Escherichia coli, UniProt P0A6F5)
T1 sequence (P0A6F5 whole entry, looked up): as the sequence (P0A6F5 whole entry) above
Description: as §1

[5] = biological target: T2, Thiosulfate sulfurtransferase (Homo sapiens, UniProt Q16762); type: ADME;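 note: native rhodanese of unspecified species, enzyme activity read after 45 min by spectrophotometric detection of Fe(SCN)3 colour, IC50 reflects activity reduction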
T2 sequence (Q16762 whole entry): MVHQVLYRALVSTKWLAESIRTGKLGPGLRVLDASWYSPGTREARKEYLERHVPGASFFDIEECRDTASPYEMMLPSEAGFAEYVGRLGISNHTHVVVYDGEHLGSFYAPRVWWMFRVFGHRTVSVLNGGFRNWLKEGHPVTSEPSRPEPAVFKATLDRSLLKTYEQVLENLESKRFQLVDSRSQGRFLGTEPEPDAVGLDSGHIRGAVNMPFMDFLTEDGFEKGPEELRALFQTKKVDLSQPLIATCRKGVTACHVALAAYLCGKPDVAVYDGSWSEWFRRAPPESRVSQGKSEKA
Description: Inhibition of native rhodanese (unknown origin) assessed as reduction in rhodanese enzyme activity after 45 mins by Fe(SCN)3 dye based spectrometric analysis

E. coli GroEL/ES [6] = biological target: T1, E. coli GroEL/ES; remark: listed apart in the source
Description: as §2

HSP60/HSP10 [7] = biological target: HSP60/HSP10 (Homo sapiens, UniProt P10809)
Chain of HSP60/HSP10 (Homo sapiens, UniProt P10809) (P10809 whole entry): as the sequence (P10809 whole entry) above
Chain of HSP60/HSP10 (Homo sapiens, UniProt P10809) (P61604 whole entry, further chain): as the sequence (P61604 whole entry) above
Description: as §3

SMILES	IC50 (GroEL/GroES [1]) [µM]	IC50 (Chaperonin GroEL) [µM]	IC50 (GroEL/GroES [2]) [µM]	IC50 (HSP60/HSP10 [3]) [µM]	IC50 (E. coli GroEL/ES [4]) [µM]	IC50 [5] [µM]	IC50 (E. coli GroEL/ES [6]) [µM]	IC50 (HSP60/HSP10 [7]) [µM]
C=CC1=C(C)c2cc3[nH]c(cc4nc(cc5[nH]c(cc1n2)c(C)c5CCC(=O)O)C(CCC(=O)O)=C4C)c(C)c3C=C [PROTOPORPHYRIN]	3	> 250	4.4	4.9	–	–	–	–
CC[C@H](C)C1O[C@]2(C=C[C@@H]1C)C[C@@H]1C[C@@H](C/C=C(\C)[C@@H](O[C@H]3C[C@H](OC)[C@@H](O[C@H]4C[C@H](OC)[C@H](NC(C)=O)[C@H](C)O4)[C@H](C)O3)[C@@H](C)/C=C/C=C3\CO[C@@H]4[C@H](O)C(C)=C[C@@H](C(=O)O1)[C@]34O)O2 (some centres undefined)	–	> 250	–	–	38	> 100	11	17
CCCCC/C=C\C/C=C\C/C=C\C/C=C\CCCC(=O)O [ARACHIDONIC ACID]	–	> 250	–	–	18	> 100	7.3	4.5
O=c1c(O)c(-c2ccc(O)cc2O)oc2cc(O)cc(O)c12 [MORIN]	–	> 250	–	–	5.2	57	8.5	11
CCCCCCCCCCCCCCCCC(C(=O)O)C(O)(CC(=O)O)C(=O)O (centres undefined)	–	> 250	–	–	8.9	> 100	3.5	4
Cc1cc(-c2ccc(/N=N/c3ccc4c(S(=O)(=O)O)cc(S(=O)(=O)O)c(N)c4c3O)c(C)c2)ccc1/N=N/c1ccc2c(S(=O)(=O)O)cc(S(=O)(=O)O)c(N)c2c1O [EVANS BLUE]	–	161	–	–	0.087	8.7	0.039	0.17
CC(COc1ccccc1)N(CCCl)Cc1ccccc1 (centres undefined) [PHENOXYBENZAMINE HYDROCHLORIDE]	–	> 250	–	–	129	> 100	40	78
CCCCCCCCCc1ccc(O)cc1 [4-NONYLPHENOL]	–	> 250	–	–	29	72	12	9.5
Cc1cc2c(C(C)C)c(O)c(O)c(C=O)c2c(O)c1-c1c(C)cc2c(C(C)C)c(O)c(O)c(C=O)c2c1O	–	> 250	–	–	0.43	11	0.66	1.2
O=C(O[C@@H]1Cc2c(O)cc(O)cc2O[C@@H]1c1cc(O)c(O)c(O)c1)c1cc(O)c(O)c(O)c1 [EPIGALOCATECHIN GALLATE]	–	> 250	–	–	0.58	7.3	0.36	2.3
O=C(OC[C@H]1O[C@@H](OC(=O)c2cc(O)c(O)c(OC(=O)c3cc(O)c(O)c(O)c3)c2)[C@H](OC(=O)c2cc(O)c(O)c(OC(=O)c3cc(O)c(O)c(O)c3)c2)[C@@H](OC(=O)c2cc(O)c(O)c(OC(=O)c3cc(O)c(O)c(O)c3)c2)[C@@H]1OC(=O)c1cc(O)c(O)c(OC(=O)c2cc(O)c(O)c(O)c2)c1)c1cc(O)c(O)c(OC(=O)c2cc(O)c(O)c(O)c2)c1 [TANNIC ACID]	–	137	–	–	1	39	0.87	3.8
CCc1oc2ccccc2c1C(=O)c1cc(Br)c(O)c(Br)c1 [BENZBROMARONE]	–	> 250	–	–	49	> 100	18	9.1
CC[C@H]1OC(=O)[C@H](C)[C@@H](O[C@H]2C[C@@](C)(OC)[C@@H](O)[C@H](C)O2)[C@H](C)[C@@H](O[C@@H]2O[C@H](C)C[C@H](N(C)C)[C@H]2O)[C@](C)(O)C[C@@H](C)C(=O)[C@H](C)[C@@H](O)[C@]1(C)O [ERYTHROMYCIN]	–	> 250	–	–	178	> 100	> 100	> 100
COc1cc(/C=C/C(=O)CC(=O)/C=C/c2ccc(O)c(OC)c2)ccc1O [CURCUMIN]	–	> 250	–	–	2.9	56	3.1	8.3
CN(C)c1ccc(C(=C2C=CC(=[N+](C)C)C=C2)c2ccc(N(C)C)cc2)cc1 [GENTIAN VIOLET]	–	> 250	–	–	15	16	11	5.8
Oc1c(Cl)cc(Cl)cc1Sc1cc(Cl)cc(Cl)c1O [BITHIONOL]	–	> 250	–	–	13	> 100	4.3	2.8
CC[C@H](C)[C@H]1O[C@]2(C=C[C@@H]1C)C[C@@H]1C[C@@H](C/C=C(\C)[C@@H](O[C@H]3C[C@H](OC)[C@@H](O[C@H]4C[C@H](OC)[C@@H](O)[C@H](C)O4)[C@H](C)O3)[C@@H](C)/C=C/C=C3\CO[C@@H]4[C@H](O)C(C)=C[C@@H](C(=O)O1)[C@]34O)O2 [ABAMECTIN COMPONENT B1A]	–	> 250	–	–	32	> 100	9.8	15
O=C(O)C1=CC(=C(c2ccc(O)c(C(=O)O)c2)c2ccc(O)c(C(=O)O)c2)C=CC1=O [AURINTRICARBOXYLIC ACID]	–	> 250	–	–	0.57	> 100	0.9	3.2
